Measurements from patent US8232295B2, “Treating vascular events with statins by inhibiting PAR-1 and PAR-4” (Heartdrug Research, L.L.C., priority 2004, dated 2012).

Tests used:
[1] = tested on: platelet PAR-1/PAR-4 receptors (cleaved epitope); assay: Whole blood flow cytometry with WEDE15 monoclonal antibody (cleaved epitope) in statin-treated patients with coronary artery disease; format: in vivo, human; conditions: n = 10
From the text: (§1) The study was designed as a prospective, single blinded, placebo controlled trial of 6 major statins currently available in the US. The study was approved by local institutional review boards. Written informed consent was obtained from all patients, who were informed of the strict compliance rules, and compensated for outpatient visits, and blood draws.
(§2) Blood samples were obtained with a 19-gauge needle by direct venipuncture and drawn into two 7-ml vacutainer tubes at room temperature containing 3.8% trisodium citrate. The vacutainer tube was filled to capacity and gently inverted 3 to 5 times to ensure complete mixing of the anticoagulant. The first 4-5 ml of blood were used for lipid profile analysis, or discharged. All samples were labeled with coded number and analyzed by blinded technicians. Platelet studies were performed at baseline as well as at Week 4, and Week 6.
(§3) The blood-citrate mixture (50 μl) was diluted with 450 μl Tris buffered saline (TBS) (10 mmol/l Tris, 0.15 mol/l sodium chloride) and mixed by inverting an Eppendorf tube gently two times. The appropriate antibody was then added (5 μl) and incubated at 37° C. for 30 minutes, after incubation, 400 μl of 2% buffered paraformaldehyde was added for fixation. The samples were analyzed on the FACScan flow cytometer (Becton Dickinson, San Diego, Calif.) calibrated to measure fluorescent light scatter. All parameters were collected using four-decade logarithmic amplification. The data were collected in list mode files and then analyzed. The surface expression of platelet receptors was determined by flow cytometry using the following monoclonal antibodies: cleaved (WEDE15), and intact (SPAN12) platelet thrombin PAR-1/PAR-4 receptors (Beckman Coulter, Brea, Calif.), and they were expressed as log mean fluorescence intensity.
(§4) The significance of differences between treatments arms was calculated by c2 and Fisher's exact tests for discrete variables, and Wilcoxon rank-sum test for continuous variables. The significance of differences between individual flow cytometric histograms was calculated using the Smirnov-Kolgomorov test incorporated in the CELLQuest' (San Diego, Calif.) software. Statistical analyses were performed using SPSS/E11.5 (SPSS, Inc., Chicago, Ill.). To control for any baseline differences analysis of variance was used. All p values are 2 sided.

[2] = tested on: platelet PAR-1/PAR-4 receptors (intact epitope); assay: Whole blood flow cytometry with SPAN12 monoclonal antibody (nonactive, intact epitope) in statin-treated patients with coronary artery disease; format: in vivo, human; conditions: n = 10
From the text: as §1, §2, §3, §4

[3] = Baseline (pretreatment), patients with coronary artery disease, mean ± SD
[4] = Week 4 of statin therapy, dose at physician discretion (Table 2), *p < 0.05
[5] = Week 6 of statin therapy, dose at physician discretion (Table 2), *p < 0.05

Structure (SMILES)	WEDE15-MoAbs (a cleaved epitope of PAR-1/PAR-4 receptors) receptor expression [1, 3]	WEDE15-MoAbs (a cleaved epitope of PAR-1/PAR-4 receptors) receptor expression [1, 4]	WEDE15-MoAbs (a cleaved epitope of PAR-1/PAR-4 receptors) receptor expression [1, 5]	SPAN-12-MoAbs (nonactive, intact epitope of PAR-1/PAR-4 receptors) receptor expression [2, 3]	SPAN-12-MoAbs (nonactive, intact epitope of PAR-1/PAR-4 receptors) receptor expression [2, 4]	SPAN-12-MoAbs (nonactive, intact epitope of PAR-1/PAR-4 receptors) receptor expression [2, 5]
CC(C)c1c(C(=O)Nc2ccccc2)c(-c2ccccc2)c(-c2ccc(F)cc2)n1CC[C@@H](O)C[C@@H](O)CC(=O)O [Atorvastatin, atorvastatin]	27.5 ± 4.9 Log mean fluorescence intensity	16.1 ± 5.8* Log mean fluorescence intensity	18.0 ± 7.4* Log mean fluorescence intensity	46.1 ± 8.3 Log mean fluorescence intensity	39.5 ± 5.7 Log mean fluorescence intensity	30.8 ± 4.0* Log mean fluorescence intensity
CC(C)n1c(/C=C/C(O)CC(O)CC(=O)O)c(-c2ccc(F)cc2)c2ccccc21 (stereo not drawn) [Fluvastatin, fluvastatin]	27.1 ± 5.9 Log mean fluorescence intensity	18.0 ± 5.8* Log mean fluorescence intensity	20.7 ± 4.1* Log mean fluorescence intensity	42.8 ± 8.2 Log mean fluorescence intensity	37.1 ± 7.3 Log mean fluorescence intensity	29.9 ± 6.4* Log mean fluorescence intensity
CC[C@H](C)C(=O)O[C@H]1C[C@@H](C)C=C2C=C[C@H](C)[C@H](CC[C@@H]3C[C@@H](O)CC(=O)O3)[C@H]21 [Lovastatin, lovastatin]	26.8 ± 4.9 Log mean fluorescence intensity	18.4 ± 5.0* Log mean fluorescence intensity	23.0 ± 6.3 Log mean fluorescence intensity	40.6 ± 6.9 Log mean fluorescence intensity	40.0 ± 8.1 Log mean fluorescence intensity	31.1 ± 5.5* Log mean fluorescence intensity
CC[C@H](C)C(=O)O[C@H]1C[C@H](O)C=C2C=C[C@H](C)[C@H](CC[C@@H](O)C[C@@H](O)CC(=O)O)[C@H]21 [Pravastatin, pravastatin]	28.2 ± 4.4 Log mean fluorescence intensity	16.9 ± 4.8* Log mean fluorescence intensity	20.1 ± 6.6* Log mean fluorescence intensity	50.3 ± 9.1 Log mean fluorescence intensity	29.0 ± 6.7* Log mean fluorescence intensity	32.6 ± 8.4* Log mean fluorescence intensity
CC(C)c1nc(N(C)S(C)(=O)=O)nc(-c2ccc(F)cc2)c1/C=C/[C@@H](O)C[C@@H](O)CC(=O)O [Rosuvastatin, rosuvastatin]	30.1 ± 7.2 Log mean fluorescence intensity	17.4 ± 5.5* Log mean fluorescence intensity	22.6 ± 7.2* Log mean fluorescence intensity	42.2 ± 9.4 Log mean fluorescence intensity	33.6 ± 5.9 Log mean fluorescence intensity	25.1 ± 7.0* Log mean fluorescence intensity
CCC(C)(C)C(=O)O[C@H]1C[C@@H](C)C=C2C=C[C@H](C)[C@H](CC[C@@H]3C[C@@H](O)CC(=O)O3)[C@H]21 [Simvastatin, simvastatin]	29.0 ± 7.3 Log mean fluorescence intensity	16.6 ± 5.5* Log mean fluorescence intensity	23.4 ± 8.1 Log mean fluorescence intensity	45.4 ± 7.0 Log mean fluorescence intensity	26.5 ± 5.8* Log mean fluorescence intensity	24.9 ± 6.2* Log mean fluorescence intensity
